# Like-named read-outs stand apart in the source and are kept apart here.
# Legend:
# [1] = test system: B16F10 melanoma tumor cell line; assay: Cell death by AnnexinV/DAPI staining 48 hours after drug treatment; format: cell-based, mouse; settings: for cell death by DAPI and Annexin V staining: at the concentrations used
# Protocol: For assessment of cell death, floating and attached cells were harvested after 48 hours of treatment with the indicated chemotherapeutic drugs. Attached cells were detached using 5 mM EDTA in PBS. The recovered cells were centrifuged at 250×g for 5 minutes, washed once in PBS containing 0.9 mM Ca2+ and 0.5 mM Mg2+ and then stained with AnnV-FITC for 15 minutes in Annexin binding buffer at room temperature according to the manufacturer's protocol (Biolegend). Cells were co-stained with DAPI at a final concentration of 1 μg/ml for 2 minutes in Annexin binding buffer, brought to a final volume of 500 ul using PBS containing 0.9 mM Ca2^+ and 0.5 mM Mg2^+ and analyzed by flow cytometry.
# To identify how DNA-damaging chemotherapy could be optimally used to enhance anti-tumor immune function, cytotoxicity assays were performed using the B16F10 melanoma tumor cell line expressing ovalbumin (B16-Ova). Cells were treated with clinically used chemotherapeutic agents followed by assaying for cell death by DAPI and Annexin V staining 48 hours later.
# [2] = test system: B16F10 melanoma tumor cell line; assay: Cell viability (survival) assay with CellTiter-Glo, 48 hours; format: cell-based, mouse; settings: at the concentrations used
# Protocol: (§1) For assays of survival, 15,000 cells were plated per well in a 96-well plate in 100 μl media with 5 replicates per condition. Wells along the four edges of the plate were not used. Following cell attachment, the indicated drugs were added in an equal volume of media, and incubated for an additional 48 hours. The media was then removed and replaced with 100 ul of fresh media at room temperature. Following a 30 minute incubation at room temperature, 50 μl of CellTiter-Glo reagent was added, followed by 2 minutes of gentle mixing. The plate was incubated at room temperature for an additional 10 minutes. 100 μl of supernatant was transferred to a 96-well white opaque plate and luminescence was read on a Tecan microplate reader. Values were normalized to those of DMSO-treated control cells.
# [3] = as above; format: cell-based, mouse; settings: mouse, B16F10 melanoma tumor cells, 48 hours, normalized to DMSO-treated control cells
# Protocol: as §1
# MC-38-Ova cells = assay: In vitro cross presentation assay: drug-treated MC-38-Ova cells, BMDC and OT-1 CD8+ T-cells; format: cell-based, mouse
# Protocol: (§2) B16-Ova or MC-38 Ova cells were treated with various doses of chemotherapeutic drugs for 24 h followed by extensive washing in IMDM (10% FBS, P/S). Subsequently 1×10^6 treated cells were co-cultured with 2.5×10^5 BMDC per well of a 24-well plate for each condition tested. After 24 hours of co-culture, supernatants were removed from each well and the BMDC washed 2-3 times in T-cell media (RPMI containing 10% FBS, 20 mM HEPES, 1 mM sodium pyruvate, 55 uM b-mercaptoethanol, 2 mM L-glutamine, nonessential amino acids and antibiotics). CD8+OT-I T-cells isolated from spleens of OT-I mice were then co-cultured with the BMDC at 125,000 T-cells per well to achieve an effector to target ratio of 0.5. Where indicated, BMDC and/or T-cells were also exposed to chemotherapy drugs. After a 12-15 h incubation, IFN-g producing T-cells were identified and quantified by intra-cellular cytokine staining and flow cytometry using a BD LSR II or Fortessa flow cytometer. Cells were first gated for CD3 expression, then re-gated for CD8 and IFNg expression.
# B16-Ova cells [4] = assay: ATP levels in cell-free culture media by CellTiter-Glo; format: cell-based, mouse; settings: for ATP (nM) MEAN: culture media 24-48 hours after treatment
# Protocol: For measurement of ATP levels, cell-free culture media obtained as above was analyzed by CellTiter-Glo according to the manufacturer's protocol. Values were converted to ATP concentrations using a standard curve generated using pure ATP.
# p38MAPK = assay: Western blotting of cell lysates with anti-phospho-p38 antibody; format: cell-based, mouse; settings: B16-Ova cells
# [5] = test system: CT26 mouse colon cancer cells; settings: previously reported; cited from earlier work
# B16-Ova cells [6] = assay: Calreticulin surface exposure by flow cytometry; settings: for CALR (%): 24 hours after treatment, representative experiment
# B16-Ova cells [7] = assay: HMGB1 in cell culture media by ELISA; format: cell-based, mouse; settings: for HMGB1 (ng/ml) MEAN: culture media 24-48 hours after treatment
# Protocol: Cell-free cell culture media was then analyzed by ELISA for HMGB1 according to the manufacturer's protocol.
# B16-Ova cells [8] = assay: In vitro cross presentation assay: drug-treated B16-Ova cells, BMDC and OT-1 CD8+ T-cells, IFN-γ+ T-cells by flow cytometry; format: cell-based, mouse
# Protocol: as §2
# An experimental system was developed to assess dendritic cell-mediated T-cell priming using the B16-Ova cells, in combination with primary bone-marrow derived dendritic cells (BMDC) and OT-I CD8+ T-cells expressing a TCR transgene that specifically recognizes the Ova-derived peptide […] (SEQ ID NO:1) in the context of H2-Kb (OT-1) (Clarke, et al., Immunol Cell Biol., 78(2):110-7 (2000); Hogquist, et al., Cell, 76(1):17-27 (1994)). […] The treated B16-Ova cells/BMDC co-culture was then incubated with purified CD8+ T-cells obtained from the spleens of OT-1 mice, and the appearance of IFNg+CD8 T-cells was measured 12-15 hours later by intracellular staining and subsequent quantification using flow cytometry.
smiles,measurement,setting,value
"CC(=O)O[C@H]1C(=O)[C@@]2(C)[C@H]([C@H](OC(=O)c3ccccc3)[C@]3(O)C[C@H](OC(=O)[C@H](O)[C@@H](NC(=O)c4ccccc4)c4ccccc4)C(C)=C1C3(C)C)[C@]1(OC(C)=O)CO[C@@H]1C[C@@H]2O [Pac, paclitaxel]",cell death by DAPI and Annexin V staining,[1]; 48 hours,did not induce substantial amounts of cell death
same,cytotoxicity at 0.2 µM,"[1]; Mus musculus, B16-F10, 200 nM, 48 hours, read-out: AnnV+DAPI+ (%) Mean",4.79%
same,cytotoxicity at 0.2 µM,"[1]; Mus musculus, B16-F10, 200 nM, 48 hours, read-out: AnnV+DAPI− (%) Mean",7.2%
same,cytotoxicity at 0.2 µM,"[1]; Mus musculus, B16-F10, 200 nM, 48 hours, read-out: AnnV−DAPI+ (%) Mean",2.18%
same,viability at 0.2 µM,"[1]; Mus musculus, B16-F10, 200 nM, 48 hours, read-out: AnnV−DAPI− (%) Mean",85.8%
same,cytotoxicity at 1 µM,"[1]; Mus musculus, B16-F10, 1 uM, 48 hours, read-out: AnnV+DAPI+ (%) Mean",2.98%
same,cytotoxicity at 1 µM,"[1]; Mus musculus, B16-F10, 1 uM, 48 hours, read-out: AnnV+DAPI− (%) Mean",3.03%
same,cytotoxicity at 1 µM,"[1]; Mus musculus, B16-F10, 1 uM, 48 hours, read-out: AnnV−DAPI+ (%) Mean",2.79%
same,viability at 1 µM,"[1]; Mus musculus, B16-F10, 1 uM, 48 hours, read-out: AnnV−DAPI− (%) Mean",91.2%
same,growth arrest,[2],caused some degree of growth arrest
same,"viability at 48 h, 0.2 µM",[3]; 0.2 uM,69.8%
same,"viability at 48 h, 1 µM",[3]; 1 uM,74%
"COc1cccc2c1C(=O)c1c(O)c3c(c(O)c1C2=O)C[C@@](O)(C(=O)CO)C[C@@H]3O[C@H]1C[C@H](N)[C@H](O)[C@H](C)O1 [Dox, doxorubicin]",% CD3+CD8+IFN-γ+ T-cells MEAN,MC-38-Ova cells; MC-38-Ova cells treated with 10 uM for 24 h,1.217%
same,% CD3+CD8+IFN-γ+ T-cells MEAN,MC-38-Ova cells; MC-38-Ova cells treated with 50 uM for 24 h,0.08667%
same,ATP (nM) MEAN,B16-Ova cells [4]; 10 uM,1.11 nM
same,ATP (nM) MEAN,B16-Ova cells [4]; 50 uM,0.83 nM
same,ATP release,B16-Ova cells [4]; after 24 hours of treatment,Substantial ATP release
same,p38MAPK activation,p38MAPK,p38MAPK activation
same,immunogenic cell death / calreticulin exposure,[5],induce calreticulin exposure
same,cell death,[1]; 10 μM and 50 μM,high levels of cell death
same,cell death by DAPI and Annexin V staining,[1]; 48 hours,caused varying extents of apoptotic and non-apoptotic cell death
same,cytotoxicity at 10 µM,"[1]; Mus musculus, B16-F10, 10 uM, 48 hours, read-out: AnnV+DAPI+ (%) Mean",48%
same,cytotoxicity at 10 µM,"[1]; Mus musculus, B16-F10, 10 uM, 48 hours, read-out: AnnV+DAPI− (%) Mean",31.6%
same,cytotoxicity at 10 µM,"[1]; Mus musculus, B16-F10, 10 uM, 48 hours, read-out: AnnV−DAPI+ (%) Mean",0.04%
same,viability at 10 µM,"[1]; Mus musculus, B16-F10, 10 uM, 48 hours, read-out: AnnV−DAPI− (%) Mean",20.4%
same,cytotoxicity at 50 µM,"[1]; Mus musculus, B16-F10, 50 uM, 48 hours, read-out: AnnV+DAPI+ (%) Mean",52.1%
same,cytotoxicity at 50 µM,"[1]; Mus musculus, B16-F10, 50 uM, 48 hours, read-out: AnnV+DAPI− (%) Mean",27.1%
same,cytotoxicity at 50 µM,"[1]; Mus musculus, B16-F10, 50 uM, 48 hours, read-out: AnnV−DAPI+ (%) Mean",0.04%
same,viability at 50 µM,"[1]; Mus musculus, B16-F10, 50 uM, 48 hours, read-out: AnnV−DAPI− (%) Mean",20.8%
same,CALR (%),B16-Ova cells [6]; 10 uM,4.97%
same,CALR (%),B16-Ova cells [6]; 50 uM,2.82%
same,level of externalized calreticulin,B16-Ova cells [6]; 24 hours of drug exposure,lowest levels
same,"viability at 48 h, 10 µM",[3]; 10 uM,0.505%
same,"viability at 48 h, 50 µM",[3]; 50 uM,0.126%
same,HMGB1 (ng/ml) MEAN,B16-Ova cells [7]; 10 uM,77.83 ng/mL
same,HMGB1 (ng/ml) MEAN,B16-Ova cells [7]; 50 uM,57.75 ng/mL
same,HMGB1 release into the media,B16-Ova cells [7]; 24-48 hours post-treatment window,high levels of HMGB1 release
same,activating cells,B16-Ova cells [8]; 0.5 μM and 1.0 μM,effective at activating cells
same,activating cells,B16-Ova cells [8]; 10 μM and 50 μM,not effective at activating cells
same,inducing DC-mediated IFN-γ in T-cells,"B16-Ova cells [8]; 10 and 50 uM (Table 3, Table 4)",ineffective
same,% CD3+CD8+IFN-γ+ T-cells MEAN,B16-Ova cells [8]; B16-Ova cells treated with 10 uM for 24 h,0.13%
same,% CD3+CD8+IFN-γ+ T-cells MEAN,B16-Ova cells [8]; B16-Ova cells treated with 50 uM for 24 h,0.28%
same,IFN-gamma production in CD8+ T-cells,B16-Ova cells [8]; specific doses,promote IFN-gamma production in CD8+ T-cells
